Laboratory results: US7629308B2, “Methods relating to muscle selective calcineurin interacting protein (MCIP)” (Board of Regents, The University of Texas System, priority 2000, dated 2009)
Several values for one entry are separate records, joined by “and”; a condition that tells them apart may be missing. Equal entries are not always repeated.

How the values were obtained:
MCIP1 mRNA [1] = assay: Northern blot of MCIP1 mRNA in C2C12 cells; format: cell-based, mouse
Protocol: (§1) Tissue culture, cell transfection or infection, reporter gene assays: C2C12 myoblasts and myotubes were cultured as previously described (Grayson et al, 1995). Ionomycin ([…]) and cyclosporin A (50 to 200 nM) were added 4 hrs prior to harvesting the cells. When included, cyclohexamide (25 mM) was added 15 min prior to ionomycin. Transient transfection with plasmids or infection with recombinant, replication-defective adenoviruses, and luciferase assays were performed as previously reported (Chin et al, 1998; Rothermel et al., 2000; Wu et al., 1973).
(§2) RNA isolation and Northern blot analysis: Total RNA was prepared from mouse tissues or C2C12 cells using Tripure (Boehringer Mannheim, Inc.) following the manufacturer's protocol. Northern blot analysis was performed with […] of total RNA in each lane and probed in Ultrahyb (Ambion) with complementary sequences representing the 3′ UTR of MCIP1 (common to all known splicing variants), exon 1 of MCIP1, exon 4 of MCIP1, or ORF segments of MCIP2 or GAPDH cDNA. Probes were generated by PCR and labeled as described previously (Rothermel et al., 2000). Signals from Northern blots were detected on a Storm PhosphorImager (Molecular Dynamics) and quantified using ImageQuant (version 1.2).

MCIP2 mRNA [2] = assay: Northern blot of MCIP2 mRNA in C2C12 cells; format: cell-based, mouse
Protocol: as §1, §2

MCIP2 mRNA [3] = assay: Northern blot of MCIP2 mRNA in mouse heart and soleus; format: in vivo
Protocol: (§3) Animal experiments: Lines of transgenic mice in which the cc myosin heavy chain promoter is used to drive expression of a constitutively active form of calcineurin selectively in the heart were generated and described previously (Molkentin et al., 1998). Wildtype male C57B1/6 mice were injected intraperitoneally with 3, 5, 3′-triiodothyromine (T3) ([…]) or an equal volume of 0.9% saline once a day for ten days (Robbins & Swain, 1992). All experiments involving animals were conducted using IACRAC-approved protocols.
as §2

cardiac hypertrophy [4] = assay: Hyperthyroid cardiac hypertrophy induced by T3 injection; format: in vivo, mouse; settings: ten days i.p.; n=4
Protocol: as §3

MCIP1 mRNA [5] = assay: Northern blot of MCIP1 mRNA in mouse heart and soleus; format: in vivo
Protocol: as §3, §2

cardiac hypertrophy [6] = assay: Cardiac hypertrophy after isoproterenol infusion or wheel running exercise; format: in vivo, mouse
Protocol: Intact animal studies: In addition to the genetic cross to α-MHC-CnA* animals, α-MHC-hMCIP1 transgenic mice and wild-type littermates were subjected to two independent stimuli known to provoke cardiac hypertrophy. Twelve-week old and 28-week old male mice were surgically implanted with a subcutaneous mini-osmotic pump (Alzet model 2001) that released isoproterenol in 0.9% NaCl at a rate of 28 mg per hour per […] of body weight over a seven day period. Control pumps delivered a 0.9% NaCl solution. Hearts were harvested on day eight. The heart body weight ratio (htw/bw) of isoproterenol-treated, animals were compared to the mean htw/bw ratio of age matched saline-treated animals of the same genotype. For exercise-induced hypertrophy, 28-week old male animals were placed in individual cages where they had free access to a running wheel. The number of revolutions was monitored continuously for 28 days. The animals ran an average of 3 to 5 kilometers a day. The heart body weight ratios (htw/bw) of the exercised animals were compared to the mean htw/bw ratios of age-matched sedentary animals of the same genotype. A Wilcoxon rank sum test was used to determine statistically significant differences among treatment groups (p<0.05). All animal protocols were reviewed and approved by the appropriate institutional review boards.

calcineurin = assay: Luciferase reporter assays of calcineurin-dependent transcription in C2C12 cells; format: cell-based, mouse
Description: (§4) GST-MCIP1 fusions were expressed from the bacterial expression plasmid pGEX-CS (T. D. Parks, et al. 1994). Luciferase reporter plasmids, Mb-luc and IL-2-luc, were constructed in pGL3 (Promega) by inserting promoter/enhancer regions from genes encoding human myoglobin (Chin et al., 1998) or IL-2 (Clipstone et al., 1992), respectively. In addition, a synthetic enhancer consisting of three copies of a high affinity MEF2 binding sequence from the desmin promoter (Naya et al., 2000) was linked to a minimal promoter (hsp68) and inserted into pGL3 yielding the des-MEF-luc reporter. The β-galactosidase reporter plasmid pCMV-lacZ (J. Grayson, et al. 1998), and expression vectors encoding constitutively active forms of NFAT (Molkentin et al., 1998), calcineurin (CnA*) (Chin et al., 1998, O'Keefe et al., 1992), or calmodulin dependent protein kinase type IV (CaMKIV) (Ho et al., 1996), were previously described. The identity of plasmid constructions was confirmed by restriction mapping and partial DNA sequencing.
(§5) Myoblasts were harvested 24 h after transfection.
Cell culture studies: C2C12 myoblasts were maintained and transfected as previously described (Rothermel et al., 2000). Luciferase assays of whole cell extracts were performed as previously described (Rothermel et al., 2000). All results were corrected for variations in transfection efficiency by normalization to expression of a cotransfected pCMV-LacZ plasmid.

calcineurin A = target: T1, calcineurin A (Mus musculus, UniProt P63328); assay: In vitro protein-protein interaction assay (GST pull-down); format: binding
T1 construct: calcineurin A (amino acids 1-398) was translated in rabbit reticulocyte lysates; made in house; host or cells: calcineurin A: rabbit reticulocyte lysate (TNT coupled transcription/translation, Promega); GST-MCIP1: bacteria (pGEX-CS)
Protocol: In Vitro Protein-Protein Interaction Assays—GST and GST-MCIP1 fusion proteins were prepared as described previously (Grayson et al., 1998). [^35S]Methionine labeled CnA398, CnA342, and CnA266 were produced in the TNT coupled in vitro transcription/translation system (Promega). For in vitro binding assays, equivalent amounts of GST fusion proteins bound to glutathione were resuspended in 500 μl of binding buffer (20 mM Tris, pH 7.5, 100 mM KCl, 0.1 mM EDTA, 0.05% Nonidet P-40, 10% glycerol, and 1 mg/ml bovine serum albumin). [^35S]Methionine-labeled CnA proteins were added to the resuspended GST fusion proteins and incubated for 1 h. The beads were then spun down and washed three times in binding buffer. An equal volume of 2×SDS-PAGE loading buffer was added, and the suspension was boiled for 3 min. The bound proteins were then resolved on SDS-PAGE and visualized by autoradiography. ^35S-Labeled luciferase protein (Promega) was used as a negative control. For estimation of binding efficiency, 25% of the radiolabeled protein was loaded as an input control.

Gal4-VP16 = settings: C2C12 cells
Protocol: Tissue Culture, Cell Transfection, and Reporter Gene Assays—C2C12 myoblasts were grown in Dulbecco's modified Eagle's medium supplemented with 20% fetal bovine serum and antibiotics (100 units of penicillin and 100 g of streptomycin/ml). Myotube formation was induced by switching confluent cells to differentiation media (Dulbecco's modified Eagle's medium supplemented with 2% heat-inactivated horse serum) for 48-72 h. For transient transfection assays, C2C12 cells were plated 12 h before transfection in 12-well tissue culture dishes at 5×10^4 cells/well, and transfected with a total of 0.5 μg of plasmid DNA using LipofectAMINE Plus (Life Technologies, Inc.). Myoblasts were harvested 24 h after transfection. Myotubes were obtained by shifting cultures to differentiation media 24 h after transfection and harvesting 48 h later. To stimulate transfected cells, 1 μM ionomycin and 10 ng/ml phorbol myristate acetate (PMA) were added 4.5 h prior to harvesting. Luciferase assays of whole cell extracts were conducted as described previously (Yang et al., 1997).

[7] = system: constitutively active form of NFATc; assay: IL-2-luc reporter driven by constitutively active NFAT in C2C12 cells; format: cell-based, mouse
Description: as §4, §5

[8] = C2C12, single culture dish, normalized to GAPDH mRNA
[9] = Heart, i.p. once a day for ten days
[10] = Soleus, pooled muscles from two animals

## C[C@H](CCC(=O)O)C[C@H](C)C[C@H](C)C(=O)/C=C(\O)[C@H](C)C[C@H](C)C/C=C/[C@@H](C)[C@@H](O)[C@@H](C)[C@@H](O)C[C@@H]1CC[C@@](C)([C@H]2CC[C@@](C)([C@@H](C)O)O2)O1 [Ionomycin, ionomycin]
MCIP1 mRNA [1]; [8]
  MC1P1 (fold change in mRNA), Response to Calcineurin Activation: 2.42 fold and 1.94 fold and 1.26 fold
MCIP1 mRNA [1]; C2C12 cells, cyclohexamide added 15 min prior
  up-regulation of MCIP1 mRNA in the presence of cyclohexamide: ~10 fold
MCIP1 mRNA [1]; C2C12 myoblasts or myotubes, cyclohexamide absent
  induction of MCIP1 mRNA: 2 fold
MCIP1 mRNA [1]; compared to cells treated with the highest dose of cyclosporin
  increase of MCIP1 mRNA in the absence of cyclosporin: 4 fold
MCIP2 mRNA [2]; [8]
  MC1P2 (fold change in mRNA), Response to Calcineurin Activation: 0.94 fold and 1.00 fold and 1.12 fold
MCIP2 mRNA [2]; C2C12 cells
  expression of MCIP2 mRNA: unaffected

## N[C@@H](Cc1cc(I)c(Oc2ccc(O)c(I)c2)c(I)c1)C(=O)O [T3, 3,5, 3′-triiodothyromine]
MCIP2 mRNA [3]; [9]
  MC1P2 (fold change in mRNA), Response to Thyroid Hormone: 1.59 fold and 1.81 fold and 1.71 fold
MCIP2 mRNA [3]; [10]
  MC1P2 (fold change in mRNA), Response to Thyroid Hormone: 1.72 fold and 2.21 fold and 1.62 fold
MCIP2 mRNA [3]; both heart and soleus skeletal muscles
  increase of MCIP2 transcript levels: approximately 2 fold
MCIP2 mRNA [3]; heart and soleus
  T3 Effect, MC1P2 (aggregate fold change, mean ±SE): 1.78 ± 0.01 fold
Cardiac hypertrophy [4]
  mean heart weight: 180 mg
  mean heart weight/body weight ratio: 7.2 mg/gm
MCIP1 mRNA [5]; [9]
  MC1P1 (fold change in mRNA), Response to Thyroid Hormone: 1.05 fold and 0.87 fold and 1.08 fold
MCIP1 mRNA [5]; [10]
  MC1P1 (fold change in mRNA), Response to Thyroid Hormone: 0.78 fold and 1.05 fold and 1.24 fold
MCIP1 mRNA [5]; heart and soleus
  T3 Effect, MC1P1 (aggregate fold change, mean ±SE): 1.01 ± 0.06 fold
MCIP1 mRNA [5]; heart, ten days
  expression of MCIP1 in hyperthyroid hearts: unaltered

## CC(C)NCC(O)c1ccc(O)c(O)c1 (stereo not shown) [isoproterenol]
Cardiac hypertrophy [6]; male wild-type mice, isoproterenol by osmotic minipump over seven days
  percent increase in heart weight to body weight ratio: 22.8±1.95%

## MCIP1: myocyte-enriched calcineurin interacting protein 1, product of human gene DSCR1; expressed from transfected plasmid or transgene
Cardiac hypertrophy [6]; α-MHC-hMCIP1 transgenic mice, isoproterenol over seven days
  percent increase in heart weight to body weight ratio: 9.4±0.87%
calcineurin; C2C12 cells
  effect on activation of the des-MEF2-luc reporter by CnA* alone or CnA* with CaMKIV: inhibited
calcineurin; C2C12 cells, not shown
  effect on calcineurin response of the MCIP1 (−874 to +30)-luciferase reporter: represses this response
calcineurin; C2C12 myoblasts and myotubes
  effect on activation of IL-2 and Mb enhancer constructs by CnA*: abolished
calcineurin; C2C12 myoblasts, pCMV-CnA*
  inhibition of calcineurin induction of the IL-2-Luc reporter gene: almost completely inhibit
calcineurin; TATA-luc, IL-2-luc, Mb-luc, no CnA*
  effect alone on activity of reporter constructs: no effect
calcineurin; endogenous calcineurin, C2C12 myoblasts and myotubes
  effect on PMA/ionophore activation of the myoglobin enhancer (Mb-luc): inhibited
Calcineurin A; lacks calmodulin and calcineurin B binding regions
  binding to CnA(342): did not disrupt the interaction
Calcineurin A; lacks carboxyl-terminal half of the catalytic domain
  binding to CnA(266): no longer capable of binding
Gal4-VP16
  effect on Gal4-VP16 induction of UASg-TATA-luc: not affected
[7]
  effect on transcriptional activation mediated by NFAT (IL-2-luc): does not inhibit
